# Marks after values point to notes of the source that are not given here.
# Assays:
# [1] = test system: endothelial cell prostacyclin release; assay: endothelial cell prostacyclin release (6-keto-PGF1-alpha); assay type: cell-based
# U 937 cells = assay: cAMP levels of U 937 cells; assay type: cell-based
# Method: U 937 cells were grown in stationary suspension culture in RPMI 1640 containing 10% fetal calf serum (FCS) and 2 mM L-glutamine at 37° C. in a humidified atmosphere of 5% CO2 and 95% air. The cells were diluted with fresh medium (1/10, v/v) twice a week. After three days in culture, U 937 cells were centrifuged (1000×G for 10 min) and incubated for 24 hrs in RPMI 1640 medium containing 10% CPSR 1 (delipidated FCS) and 2 mM L-glutamine. Subsequently the cells were incubated in the delipidated FCS medium containing cholesterol (10-60 μg/ml), as compared with solvent alone (ethanol, 0.5% v/v, final concentration) for (2, 4 or 24 hrs).
# Cyclic AMP in supernatants from cholesterol-treated and control cells, were measured by the Rianen [^125I]cAMP-RIA Kit. Briefly, cholesterol (60 μg/ml, 24 hrs) or cholesterol vehicle (ethanol) were added after 24 hrs cell incubation in delipidated FCS medium. Cells were subsequently washed three times and resuspended (5×10^6, final concentration) in Hanks Hepes (HH)-buffer, pH 7.4 with ascorbinic acid (10 mM) and cAMP-phosphodiesterase inhibitor IBMX (1 mM). Cell suspension (100 μl) was added to 400 μl of the cAMP buffer for 30 min at 20° C. […] Values are from one experiment (representative of three) expressed as pmol cAMP per 10^6 cells. Total proteins were measured by standard procedure.
# eosinophils [2] = assay: cytosolic free calcium (fura-2) in eosinophils; assay type: cell-based, human; details: EGTA 2 mM
# Method: (§1) The concentration of cytosolic free calcium [Ca^2+]i was measured using the [Ca^2+]i indicator fura-2-acetoxymethyl ester (fura-2). […] The spectrofluorophotometer was programmed to shuttle between the two excitation wavelengths of 340 and 380 nm every 5 sec while keeping the emission wavelength of 505 nm. […] Background values were subtracted from all data. The intracellular Ca^2+ was calculated with the formula [[…] is KD of the fura-2 multiplied with the quotient of the fluorescence at 380 nm from the minimal and the maximal [Ca^2+]i fluorescence.
# PMN = assay: cytosolic free calcium (fura-2) in PMN; assay type: cell-based, human; details: for cytoplasmic Ca^2+ flux in response to agonist: 1 to 500 nM, CaCl2 1.3 mM or EGTA 2 mM
# Method: as §1
# [3] = target: T1, paf receptors on neutrophils (PMN) (Homo sapiens, UniProt P25105); assay: [^3H]paf binding to intact human neutrophils (PMN); details: for effect of excess unlabeled ligand on [^3H]paf binding: paf 500 nM; for [^3H]paf binding: 20° C., 30 min
# T1 construct: Neutrophils (PMN) were prepared from venous blood (40 ml) from normal donors; endogenous in cells; host or cells: intact neutrophils (PMN) from venous blood of normal donors
# T1 sequence (P25105 whole entry): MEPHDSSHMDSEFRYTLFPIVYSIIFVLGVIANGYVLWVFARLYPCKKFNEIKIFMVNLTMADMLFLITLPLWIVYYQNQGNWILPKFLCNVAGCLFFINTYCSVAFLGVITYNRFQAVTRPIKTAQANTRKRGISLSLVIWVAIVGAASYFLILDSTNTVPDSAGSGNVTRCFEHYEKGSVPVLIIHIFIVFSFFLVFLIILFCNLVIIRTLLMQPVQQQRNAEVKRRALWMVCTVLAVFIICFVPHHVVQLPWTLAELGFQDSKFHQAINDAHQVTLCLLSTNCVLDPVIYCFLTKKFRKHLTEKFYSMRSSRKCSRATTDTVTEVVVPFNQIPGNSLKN
# Method: (§2) Neutrophils (PMN) were prepared from venous blood (40 ml) from normal donors, anticoagulated with citric acid dextrose (7:1, v/v) was sedimented for 30 to 45 min in gelatin 0.3% final (Plasmagel®). Twenty ml of supernatant were layered on 10 ml Ficoll Hypaque (d=1.077) and centrifuged (400×g, 20 min, 20° C.). The cell pellet containing PMN (95%) was resuspended in 500 μl Tyrode's buffer (pH=7.4). Erythrocyte lysis was performed by adding 3 volumes of distilled water for 40 sec. followed by 1 volume NaCl (3.5%, w/v). PMN were then washed twice in Tyrode's buffer (centrifugation at 370×g at 20° C. for 10 min). Cell concentration was adjusted to 5×10^7 per ml.
# (§3) Binding studies were performed using, for example, intact neutrophils (PMN) or intact human blood eosinophils. PMN (2.5×10^6) or eosinophils (2.5×10^5) were suspended in 500 μl Tyrode's buffer supplemented with 1.3 mM CaCl2, 1 mM MgCl2 and 0.25% (v/v) fatty acid-free bovine serum albumin (BSA, w/v) were incubated with [^3H]paf (0.325-6.5 nM) either for 30 min at 20° C. or for 20 hrs at 4° C. Non-specific binding was assessed with the unlabeled ligands either paf (500 nM) or the receptor antagonist WEB 2086 (1 μM or 400 nM).
# In a second set of experiments, [^3H]paf binding was performed by adding 3.25 nM [^3H]paf to PMN, simultaneously with low dose (5 to 50 nM) of paf, lyso paf, the enantiomer of paf or 2-lyso phosphatidylcholine (LPC) for 30 min at 20° C. [^3H]paf binding was also measured in the presence of the phorbol ester 4-phorbol-12-myristate-13-acetate (PMA, 1 to 16 nM) either added simultaneously with [^3H]paf or preincubated 15 min at 37° C. previously. […] After the binding procedure, cells were separated from their suspending medium by filtration in a millipore vacuum system with GF/C filters. Filters were washed with 10 ml Tyrode's buffer at 4° C. and radioactivity was assessed by scintillation. Cell-bound radioactivity on the filters after subtraction of blanks (filter-bound radioactivity in the absence of cells) was expressed in fmol [^3H]paf bound per 2.5×10^6 PMN or 2.5×10^5 eosinophils.
# [4] = test system: lyso paf receptors on neutrophils (PMN); assay: [^3H]lyso paf binding to neutrophils (PMN); set-up: species or system human; details: for effect of unlabeled ligand on [^3H]lyso paf binding: excess unlabeled paf or lyso paf 500 nM, WEB 2086 1 μM
# Method: as §2
# The binding of [^3H]lyso paf (0.325-0.5 nM) was measured after 30 min incubation at 20° C. in the absence or presence of an excess of unlabeled lyso paf (500 nM), paf (500 nM) or WEB 2086 (1 μM). The effect of low dose paf (5 nM) on the binding of [^3H]lyso paf was also investigated. […] After the binding procedure, cells were separated from their suspending medium by filtration in a millipore vacuum system with GF/C filters. Filters were washed with 10 ml Tyrode's buffer at 4° C. and radioactivity was assessed by scintillation. Cell-bound radioactivity on the filters after subtraction of blanks (filter-bound radioactivity in the absence of cells) was expressed in fmol [^3H]paf bound per 2.5×10^6 PMN or 2.5×10^5 eosinophils.
# [5] = target: T2, paf receptors on eosinophils (Homo sapiens, UniProt P25105); assay: [^3H]paf binding to intact human eosinophils; details: for specific [^3H]paf binding, maximal plateau values: assessed with unlabeled paf 500 nM or WEB 2086 400 nM
# T2 construct: endogenous in cells; host or cells: intact human blood eosinophils (about 96% pure)
# T2 sequence (P25105 whole entry): as above
# Method: Eosinophils were also prepared under sterile conditions. Blood (400 ml) was mixed with 10% (v/v) dextran. The supernatant was carefully deposited on a metrizoate/ficoll suspension (d=1.148) after sedimentation of red blood cells and centrifuged (400×g: 40 min). Erythrocyte lysis was performed by adding 3 v. of distilled water for 40 sec, followed by 1 v. NaCl (3.5%, w/v). Cells were suspended in 500 μl pH 7.4 Tyrode's buffer, centrifuged (1900 rpm×10 min) and resuspended (5×10^6 cells/ml) in Tyrode's (0.25% BSA) without Ca^2+. The eosinophils fraction at 1×10^6 cells/ml contained 96±5% eosinophils, 3±3% neutrophils, 1±2% mononuclear cells and no free platelets (mean±s.d., n=3).
# as §3
# Eosinophils were added to Tyrode's (0.25% BSA, 1.3 mM CaCl2, 1 mM MgCl2) containing [3H]paf (0.325-6.5 nM) in the absence or presence of unlabeled paf, lyso paf, enantio-paf or lyso-phosphatidylcholine (LPC) (5, 10, 50, 500 nM) and/or the specific paf receptor antagonist WEB 2086 (400 nM). After the binding procedure, cells were separated from their suspending medium by filtration in a millipore vacuum system with GF/C filters. Filters were washed with 10 ml Tyrode's buffer at 4° C. and radioactivity was assessed by scintillation. Cell-bound radioactivity on the filters after subtraction of blanks (filter-bound radioactivity in the absence of cells) was expressed in fmol [^3H]paf bound per 2.5×10^6 PMN or 2.5×10^5 eosinophils.
# endothelial cell = assay: [^3H]paf binding to endothelial cells
# human platelets = assay: acetylhydrolase release from activated platelets; assay type: cell-based; details: Thrombin 0.5 IU/ml; for acetylhydrolase release: Paf 500 nM
# Method: (§4) Results are expressed as mean±S.D. or S.E. and statistics were performed using the “Mann Whitney” test (n=3, n=5 or n=6 as indicated).
# eosinophils [6] = assay: paf metabolism by intact eosinophils; assay type: in vitro ADME, human; details: binding conditions
# Method: Cells were then separated by vacuum filtration and phospholipids were extracted. Briefly, filters were placed in 500 μl water. […] High pressure liquid chromatography (HPLC) was performed using standard procedure with dichloromethane/methanol/water (50:50.5, by vol) and eluted with a flow rate of 1 ml/min. The radioactivity was measured in the fractions after subtraction of the background values.
# platelets = assay: paf-mediated platelet aggregation; assay type: cell-based; details: BSA […]; for EC50: Platelet, 0.05 h, 3 min aggregation
# Method: as §4
# acetylhydrolase = acetylhydrolase activity, kinetic constants; assay type: biochemical, human
# Method: Acetylhydrolase activity was measured in lysates of resting platelets or platelets stimulated with thrombin (0.5 IU/ml, 1 min, 37° C.), in supernatants of thrombin-activated platelets with or without acid-treated (inactivation of acetylhydrolase) plasma and in native plasma. Samples were incubated for 10 min at 37° C. in the presence of 0.1 μCi [^3H]acetyl paf and concentrations of unlabeled paf varying from 5 to 35 μM. The microenvironment modulates the acetylhydrolase indicating the origin of plasma acetylhydrolase from activated platelets.
# [7] = addition 5 nM, WEB 2086 400 nM, 20° C., 30 min
# [8] = addition 10 nM, WEB 2086 400 nM, 20° C., 30 min
# [9] = addition 50 nM, WEB 2086 400 nM, 20° C., 30 min
# [10] = source of acetylhydrolase: (1) Platelets
# [11] = source of acetylhydrolase: (2) Thrombin-activated platelets
# [12] = source of acetylhydrolase: (3) Supernatant from (2)
# [13] = source of acetylhydrolase: (4) Native plasma
smiles,measurement,setting,value
CC1C(=O)OC2C(O)C34C5CC(C(C)(C)C)C36C(OC(=O)C6O)OC4(C(=O)O5)C12O (stereo not shown) [BU 52021],endothelial cell prostacyclin release,"[1]; 10 μM, increased from 50±2",126±10 pg per ml
"CC(C)CCC[C@@H](C)[C@H]1CC[C@H]2[C@@H]3CC=C4C[C@@H](O)CC[C@]4(C)[C@H]3CC[C@]12C [Cholesterol, cholesterol]",release of cAMP levels,"U 937 cells; cholesterol 60 μg/ml, 24 hrs",increased
"Cc1nnc2n1-c1sc(CCC(=O)N3CCOCC3)cc1C(c1ccccc1Cl)=NC2 [WEB 2086, 3-(4-(2-chlorophenyl)-9-methyl-6H-thieno(3,2-f) (1,2,4)triazolo-(4,3-a)-(1,4)diazepine-2-yl)-1-(4-morpholinyl)-1-propanone]",effect on paf-mediated [Ca^2+]i rise,eosinophils [2],competitively inhibited
same,effect on paf-induced Ca^2+ flux,"PMN; WEB 2086 1 μM, 3 min preincubation",shifted to the right the paf dose-response curve
same,6-keto-PGF1-alpha,"[1]; 100 nM WEB 2086, increased from 127±3",145±11 pg per ml
same,effect of excess unlabeled ligand on [^3H]paf binding,[3]; WEB 2086 1 μM,inhibited
same,effect of unlabeled ligand on [^3H]lyso paf binding,[4]; 20° C.,inefficient
same,binding of […] [^3H]lyso paf,[4]; paf 5 nM with WEB 2086 1 μM,212.0±6.4 fmol/2.5×10^6 PMN
same,"specific [^3H]paf binding, plateau values","[5]; 20° C., 30 min, WEB 2086 400 nM, 3 experiments",25.8 ± 8.1 fmol
same,specific [^3H]paf binding,"[5]; 20° C., 30 min, WEB 2086 400 nM, 3 other experiments, no inhibitory effect",4.3 ± 3.3 fmol
same,"specific [^3H]paf binding, maximal plateau values",[5]; 20 hrs at 4° C.,14.8±5.1 fmol per 2.5×10^5 cells
same,specific [^3H]paf binding,"[5]; addition 0 nM, WEB 2086 400 nM, 20° C., 30 min",15.1 ± 8.0^1) fmol per 2.5×10^5 cells
same,increased phospholipid binding (lysine aspirin) antagonized,endothelial cell,antagonized
"CCCCCCCCCCCCCCCCCCOC[C@@H](O)COP(=O)([O-])OCC[N+](C)(C)C [lyso paf, 1-octadecyl-sn-glycero-3-phosphocholine]",cytoplasmic Ca^2+ flux in response to agonist,PMN,induced neither [Ca^2+]i entry nor mobilization
same,[^3H]paf binding,"[3]; Add. 5 nM, WEB 2086 1 μM",354 ± 20 fmol [^3H]paf bound per 2.5×10^6 PMN
same,[^3H]paf binding,"[3]; Add. 10 nM, WEB 2086 1 μM",243 ± 16 fmol [^3H]paf bound per 2.5×10^6 PMN
same,[^3H]paf binding,"[3]; Add. 50 nM, WEB 2086 1 μM",240 ± 18 fmol [^3H]paf bound per 2.5×10^6 PMN
same,effect of unlabeled ligand on [^3H]lyso paf binding,[4]; 20° C.,inhibited
same,interference with [3H]paf binding,[5],did not interfere
same,specific [^3H]paf binding,[5]; [7],1.5 ± 1.7 fmol per 2.5×10^5 cells
same,specific [^3H]paf binding,[5]; [8],1.2 ± 1.6 fmol per 2.5×10^5 cells
same,specific [^3H]paf binding,[5]; [9],4.4 ± 3.7 fmol per 2.5×10^5 cells
"CCCCCCCCCCCCCCCCCCOC[C@H](COP(=O)([O-])OCC[N+](C)(C)C)OC(C)=O [paf, 1-octadecyl-2-acetyl-sn-glycero-3-phosphocholine]",released of the total acetylhydrolase,"human platelets; paf 500 nM, mean±S.E., n=3",10.3±1.5%
same,acetylhydrolase release,human platelets; stimulation 0 sec,1.0 ± 1.0 percentage of the total content of acetylhydrolase
same,acetylhydrolase release,human platelets; stimulation 15 sec,8.2 ± 3.2 percentage of the total content of acetylhydrolase
same,acetylhydrolase release,human platelets; stimulation 30 sec,7.8 ± 2.6 percentage of the total content of acetylhydrolase
same,acetylhydrolase release,human platelets; stimulation 60 sec,9.5 ± 4.0 percentage of the total content of acetylhydrolase
same,acetylhydrolase release,human platelets; stimulation 120 sec,10.0 ± 1.4 percentage of the total content of acetylhydrolase
same,acetylhydrolase release,human platelets; stimulation 180 sec,12.6 ± 3.8 percentage of the total content of acetylhydrolase
same,acetylhydrolase release,human platelets; stimulation 300 sec,10.3 ± 1.5 percentage of the total content of acetylhydrolase
same,[Ca^2+]i rise in response to agonist,"eosinophils [2]; 1-100 nM, Ca^2+ free buffer",concentration-dependent elevation of [Ca^2+]i
same,metabolism of added paf,eosinophils [6],did not metabolize
same,cAMP in response to paf,U 937 cells,dose dependent fall in cAMP
same,cytoplasmic Ca^2+ flux in response to agonist,PMN,concentration-dependent entry of Ca^2+
same,concentration for maximal aggregation,platelets; 20° C.,2.6 ± 0.5 nM
same,concentration for maximal aggregation,platelets; 37° C.,5.0 ± 0.5 nM
same,EC50,platelets; 20° C.,400 ± 100 pM
same,EC50,platelets; 37° C.,900 ± 200 pM
same,Km,acetylhydrolase; [10],8.3 ± 1.5 µM
same,Vmax,acetylhydrolase; [10],0.3 nmol/min/mg prot.
same,Km,acetylhydrolase; [11],10.6 ± 1.5 µM
same,Vmax,acetylhydrolase; [11],0.3 nmol/min/mg prot.
same,Km,acetylhydrolase; [12],7.9 ± 1.5 µM
same,Vmax,acetylhydrolase; [12],1.4 nmol/min/mg prot.
same,Km,acetylhydrolase; [13],5.3 ± 0.5 µM
same,Vmax,acetylhydrolase; [13],1.4 nmol/min/mg prot.
same,Kd,[3]; 4° C.,440 pM
same,binding sites (high affinity) on neutrophils,[3]; 4° C.,3612 binding sites
same,[^3H]paf binding,"[3]; Add. 5 nM, WEB 2086 1 μM",376 ± 21 fmol [^3H]paf bound per 2.5×10^6 PMN
same,[^3H]paf binding,"[3]; paf 5 nM, preincubation 0 min at 37° C.",414 fmol [^3H]paf bound per 2.5×10^6 PMN
same,[^3H]paf binding,"[3]; paf 5 nM, preincubation 15 min at 37° C.",331 fmol [^3H]paf bound per 2.5×10^6 PMN
same,effect of excess unlabeled ligand on [^3H]paf binding,[3]; WEB 2086 1 μM,inhibited
same,effect of unlabeled ligand on [^3H]lyso paf binding,[4]; 20° C.,increased
same,binding of […] [^3H]lyso paf,"[4]; paf 5 nM, increased from 197.0±4.5, 20° C.",255.0±10.5 fmol per 2.5×10^6 PMN
same,binding sites per eosinophil,[5],8.6×10^4 sites per eosinophil
same,"specific [^3H]paf binding, maximal plateau values",[5]; 20 hrs at 4° C.,14.0±9.0 fmol per 2.5×10^5 cells
same,Kd,"[5]; 20 hrs at 4° C., read-out: binding affinity (Kd) on eosinophils",5500 pM
same,specific [^3H]paf binding,[5]; [7],3.8 ± 5.0 fmol per 2.5×10^5 cells
same,specific [^3H]paf binding,[5]; [8],4.3 ± 2.9 fmol per 2.5×10^5 cells
same,specific [^3H]paf binding,[5]; [9],7.2 ± 5.4 fmol per 2.5×10^5 cells
same,specific [^3H]paf binding,"[5]; addition 500 nM, 20° C., 30 min",12.5 ± 6.9 fmol per 2.5×10^5 cells
